Experimental findings from patent US20170150719A1, “FUNGICIDAL PYRAZOLES AND THEIR MIXTURES” (E I DU PONT DE NEMOURS AND COMPANY, priority 2010, published 2017) are described below.

The subject of assay [1] is Septoria tritici. As to the kind of experiment: Test F: wheat leaf blotch, preventive spray on wheat seedlings, visual disease rating. Conditions: 100 = 100% disease control; for pest or weed control at 200 µg/mL: Zymoseptoria tritici; for pest or weed control at 200 µg/mL / Test F rating (disease control): 0 = no disease control relative to the controls. Format: in vivo. The source says:
(§1) A hyphen (-) indicates no test results.

The subject of assay [2] is Puccinia recondita f. sp. tritici. Briefly: Test G: wheat leaf rust, spray after inoculation (curative) on wheat seedlings, visual disease rating. The format is in vivo. To be noted: 100 = 100% disease control; for pest or weed control at 200 µg/mL / Test G rating (disease control): sprayed after inoculation, 0 = no disease control; for Test G rating (% disease control): spray after inoculation, rating without asterisk.
Excerpt: as §1

The test system is the same in assay [3]. As to the kind of experiment: Test H: wheat leaf rust, preventive spray on wheat seedlings, visual disease rating. Conditions: 100 = 100% disease control; for pest or weed control at 200 µg/mL: read-out: Test H rating (disease control), wheat leaf rust, sprayed the day before inoculation; for pest or weed control at 200 µg/mL / Test H rating (disease control): 0 = no disease control; for Test H rating (disease control) / Test H rating (% disease control): wheat leaf rust; for Test H rating (disease control): sprayed the day before inoculation; for Test H rating (% disease control): preventive spray, rating without asterisk.

The test system of assay [4] is Botrytis cinerea. As to the kind of experiment: Test A: tomato Botrytis, preventive spray on tomato seedlings, visual disease rating. Conditions: 100 = 100% disease control; for pest or weed control at 200 µg/mL: Botrytis cinerea, in Solanum lycopersicum, read-out: Test A rating (disease control), tomato Botrytis; for pest or weed control at 200 µg/mL / Test A rating (disease control): 0 = no disease control relative to the controls.
Method: (§2) General protocol for preparing test suspensions for Tests A-I: the test compounds were first dissolved in acetone in an amount equal to 3% of the final volume and then suspended at the desired concentration (in ppm) in acetone and purified water (50/50 mix by volume) containing 250 ppm of the surfactant Trem® 014 (polyhydric alcohol esters). The resulting test suspensions were then used in Tests A-I. Each test was conducted in triplicate, and the results were averaged. Spraying a 200 ppm test suspension to the point of run-off on the test plants was the equivalent of a rate of about 800 g/ha. Unless otherwise indicated, the rating values indicate a 200 ppm test suspension was used. (An asterisk “*” next to the rating value indicates a 40 ppm test suspension was used.)
The test suspension was sprayed to the point of run-off on tomato seedlings. The following day the seedlings were inoculated with a spore suspension of Botrytis cinerea (the causal agent of tomato Botrytis) and incubated in saturated atmosphere at 20° C. for 48 h, and then moved to a growth chamber at 24° C. for 3 additional days, after which time visual disease ratings were made.

The subject of assay [5] is Alternaria solani. Briefly: Test B: tomato early blight, preventive spray on tomato seedlings, visual disease rating. Conditions: for pest or weed control at 200 µg/mL: Alternaria solani, in Solanum lycopersicum, read-out: Test B rating (disease control); for Test B rating (disease control) / Test B rating (% disease control): tomato early blight, 100 = 100% disease control; for Test B rating (disease control): 0 = no disease control relative to the controls; for Test B rating (% disease control): preventive spray, rating without asterisk.
Method: as §2
The test suspension was sprayed to the point of run-off on tomato seedlings. The following day the seedlings were inoculated with a spore suspension of Alternaria solani (the causal agent of tomato early blight) and incubated in a saturated atmosphere at 27° C. for 48 h, and then moved to a growth chamber at 20° C. for 5 days, after which time visual disease ratings were made.

The subject of assay [6] is Blumeria graminis f. sp. tritici. As to the kind of experiment: Test I: wheat powdery mildew, preventive spray on wheat seedlings, visual disease rating. To be noted: 100 = 100% disease control; for pest or weed control at 200 µg/mL: Blumeria graminis, in Triticum aestivum, read-out: Test I rating (disease control), wheat powdery mildew; for pest or weed control at 200 µg/mL / Test I rating (disease control): 0 = no disease control relative to the controls; for Test I rating (disease control) / Test I rating (% disease control): wheat powdery mildew; for Test I rating (% disease control): preventive spray, rating without asterisk.
Method: as §2
The test suspension was sprayed to the point of run-off on wheat seedlings. The following day the seedlings were inoculated with a spore dust of Blumeria graminis f. sp. tritici (also known as Erysiphe graminis f. sp. tritici, the causal agent of wheat powdery mildew) and incubated in a growth chamber at 20° C. for 8 days, after which time visual disease ratings were made.

The test system of assay [7] is Septoria nodorum. As to the kind of experiment: Test E: Septoria glume blotch, preventive spray on wheat seedlings, visual disease rating. To be noted: 100 = 100% disease control; for pest or weed control at 200 µg/mL: Parastagonospora nodorum, in Triticum aestivum, read-out: Test E rating (disease control), Septoria glume blotch; for pest or weed control at 200 µg/mL / Test E rating (disease control): 0 = no disease control relative to the controls; for Test E rating (disease control): Septoria glume blotch; for Test E rating (% disease control): Septoria glume blotch on wheat, preventive spray, rating without asterisk.

With `Cc1nn(C)c(Nc2c(F)cc(Cl)cc2F)c1-c1ccc(F)cc1F` [Compound 126, N-(4-chloro-2,6-difluorophenyl)-4-(2,4-difluorophenyl)-1,3-dimethyl-1H-pyrazol-5-amine], the pest or weed control at 200 µg/mL in assay [1] was found to be 100%; in assay [2] it was 0%; in assay [3], 99%; in assay [4], 100%; in assay [5] it was 86%; in assay [6], 100%. For the same molecule, the pest or weed control at 200 µg/mL in assay [7] was 87%.

As for `Cc1nn(C)c(Nc2c(F)cc(F)cc2F)c1-c1ccc(F)cc1Br` [Compound 74, 4-(2-bromo-4-fluorophenyl)-1,3-dimethyl-N-(2,4,6-trifluorophenyl)-1H-pyrazol-5-amine], the pest or weed control at 200 µg/mL in assay [1] was 100%; in assay [2], 0%; in assay [3], 100%; in assay [4], 100%; in assay [5], 100%; in assay [6] it was 100%. Also, the pest or weed control at 200 µg/mL in assay [7] worked out at 98%.

For the molecule `Cc1nn(C)c(Nc2ccc(Br)cc2F)c1-c1ccc(F)cc1Cl` [compound 135], in assay [1], the “Test F rating (disease control)” value is 100%. The “Test G rating (disease control)” value in assay [2] is 9%. Moreover, the “Test H rating (disease control)” value in assay [3] was 99%. For the same molecule, the “Test A rating (disease control)” value in assay [4] (tomato Botrytis) is on record as 100%. In assay [5], the “Test B rating (disease control)” value stood at 58%. For the same molecule, the “Test I rating (disease control)” value in assay [6] was determined as 100%. For the same molecule, in assay [7], the “Test E rating (disease control)” value worked out at 0%.

With `Cc1nn(C)c(Nc2ccc(C#N)cc2Cl)c1-c1ccc(F)cc1Cl` [compound 44], in assay [1], the “Test F rating (disease control)” value stood at 99%. Besides, in assay [2], the “Test G rating (disease control)” value amounted to 8%. The “Test H rating (disease control)” value in assay [3] amounted to 98%. Besides, in assay [4] (tomato Botrytis), the “Test A rating (disease control)” value came to 99%. The “Test B rating (disease control)” value in assay [5] turned out to be 0%. Also, the “Test I rating (disease control)” value in assay [6] is reported as 94%. Moreover, the “Test E rating (disease control)” value in assay [7] is 0%.

For `Cc1nn(C)c(Nc2c(F)cccc2F)c1-c1ccc(F)cc1Cl` [Compound 46, 4-(2-chloro-4-fluorophenyl)-N-(2,6-difluorophenyl)-1,3-dimethyl-1H-pyrazol-5-amine], the pest or weed control at 200 µg/mL in assay [1] worked out at 100%; in assay [2], 0%; in assay [3] it was 99%; in assay [4] it was 100%; in assay [5], 100%; in assay [6] it was 100%. For the same molecule, the pest or weed control at 200 µg/mL in assay [7] was found to be 87%.

With `Cc1nn(C)c(C(O)c2ccc(C#N)cc2F)c1-c1ccc(F)cc1Cl` (racemic) [compound 179], in assay [2], the “Test G rating (% disease control)” value is recorded as 9%. Also, in assay [3], the “Test H rating (% disease control)” value is recorded as 99%. The “Test A rating (% disease control)” value in assay [4] (tomato Botrytis, preventive spray, 0 = no control relative to controls, rating without asterisk) was 96%. Further, the “Test B rating (% disease control)” value in assay [5] came out at 16%. Besides, the “Test I rating (% disease control)” value in assay [6] was 0%. Also, in assay [7], the “Test E rating (% disease control)” value is on record as 0%.

As to `CCOc1ccc(-c2c(C)nn(C)c2Nc2ccc(F)cc2F)c(F)c1` [Compound 193], in assay [1] (preventive spray, rating without asterisk), the “Test F rating (% disease control)” value turned out to be 100%. Moreover, the “Test G rating (% disease control)” value in assay [2] is on record as 0%. Besides, in assay [3], the “Test H rating (% disease control)” value came to 27%. In addition, the “Test B rating (% disease control)” value in assay [5] is reported as 58%. The “Test I rating (% disease control)” value in assay [6] is 92%. For the same molecule, the “Test E rating (% disease control)” value in assay [7] worked out at 0%.

Turning to `Cc1nn(C)c(C(O)c2ccc(Cl)cc2F)c1-c1ccc(F)cc1Cl` (racemic) [compound 177], in assay [2], the “Test G rating (disease control)” value worked out at 0%. In addition, in assay [3], the “Test H rating (disease control)” value stood at 0%. For the same molecule, the “Test A rating (disease control)” value in assay [4] (tomato Botrytis) worked out at 99%. Besides, in assay [5], the “Test B rating (disease control)” value is listed as 0%. For the same molecule, the “Test I rating (disease control)” value in assay [6] is listed as 48%. Further, in assay [7], the “Test E rating (disease control)” value stood at 0%.
